Test results as given in patent publication US12312376B2 (priority 2020, dated 2025).
Where two headings read alike, the source gives them in different places.

How the values were obtained:
[1] = Intranasal safety profile of rintatolimod compared with EC90; format: in vivo, humans; details: dose concentration 2500 μg/ml (45×EC90)
[2] = tested on: normal, human-derived tracheal/bronchial epithelial (TBE) cells
[3] = Clinical trials of tdsRNA (safety); format: in vivo
Description: tdsRNA has undergone extensive clinical and preclinical testing. […] Favorable safety profiles have been seen for intraperitoneal, intravenous, and intranasal routes of administration of tdsRNA.

[4] = over 1,200 patients, over 100,000 doses administered

Q: For rIn•r(C12U)n [Rintatolimod], which “Intranasal tolerability in humans” value [1] is on record?
A: well tolerated in humans

Q: And the cellular toxicity ([2]; 0.5 mg/mL)?
A: 0%

Q: What about the cellular toxicity ([2]; 1.5 mg/mL) of the same substance?
A: 0%

Q: What about the cytotoxic ([2]; 4.5 mg/mL) of the same substance?
A: 12%

Q: What about the cytotoxic ([2]; 10 mg/mL) of the same substance?
A: 47%

Q: What about the drug-related deaths [3, 4] of the same substance?
A: no drug-related deaths

Q: What about the “tolerability in clinical trials” value [3, 4] of the same substance?
A: generally well-tolerated

Q: And the “serious adverse events compared to placebo” value ([3]; two placebo-controlled, randomized studies)?
A: no increase in serious adverse events compared to placebo
